Test results taken from the SangsterLogP compilation.
Values belong to the compound of their own block, whether it stands above or below them.

SMILES: O=C1CCC(=O)N1c1cc(Cl)cc(Cl)c1
logP: 1.88

SMILES: O=C1CCC(=O)N1c1ccc(C(F)(F)F)cc1
logP: 1.3

SMILES: Cc1cccc(Nc2ccccc2C(=O)O)c1
logP: 4.74

SMILES: CCCc1cccc(N2C(=O)CCC2=O)c1
logP: 1.52

SMILES: Cc1cc(C)cc(N2C(=O)CCC2=O)c1
logP: 1.16

SMILES: O=C(c1ccccc1)c1ccc(O)cc1
logP: 2.91

SMILES: O=C1CCC(=O)N1c1cc(Br)cc(Br)c1
logP: 2.12

SMILES: O=C1CC(c2cccc(C(F)(F)F)c2)C(=O)N1 (stereo not drawn)
logP: 1.35

SMILES: O=C1CCC(=O)N1c1cc(C(F)(F)F)cc(C(F)(F)F)c1
logP: 2.25

SMILES: O=C1CCC(=O)N1c1cc(Cl)c(Cl)c(Cl)c1
logP: 2.92

SMILES: O=C(O)c1ccccc1Nc1cccc([N+](=O)[O-])c1
logP: 4.42

SMILES: O=C1CCC(=O)N1c1cc(Cl)cc(Cl)c1Cl
logP: 2.44

Results, then the compound that gave them:

logP: 2.43
SMILES: Cc1ccc(C(=O)O)cc1

logP: 2.61
SMILES: Oc1cccc(C(F)(F)F)c1

logP: 2.05
SMILES: O=C(O)c1cccc(F)c1

logP: 2.83
SMILES: O=C(O)c1cccc(Br)c1

logP: 1.26
SMILES: CC(=O)Oc1cccc(O)c1

logP: 1.55
SMILES: N#Cc1ccc(C(=O)O)cc1
